PubChem BioAssay AID1259407 (Chemical Carcinogenesis Research Information System (CCRIS), 2018)
Activity calls are given as the source filed them. No rule for the calls is given here.

System: CCRIS mutagenicity, Ames/micronucleus/aberration tests
Test: CCRIS mutagenicity studies
[1] = Test System: AMES SALMONELLA TYPHIMURIUM, Strain/Indicator: TA97, Metabolic Activation: NONE, Method: STANDARD PLATE
[2] = Test System: AMES SALMONELLA TYPHIMURIUM, Strain/Indicator: TA97, Metabolic Activation: RAT, LIVER, S-9, AROCLOR 1254, Method: STANDARD PLATE
[3] = Test System: AMES SALMONELLA TYPHIMURIUM, Strain/Indicator: TA98, Metabolic Activation: NONE, Method: STANDARD PLATE
[4] = Test System: AMES SALMONELLA TYPHIMURIUM, Strain/Indicator: TA98, Metabolic Activation: RAT, LIVER, S-9, AROCLOR 1254, Method: STANDARD PLATE
[5] = Test System: AMES SALMONELLA TYPHIMURIUM, Strain/Indicator: TA100, Metabolic Activation: NONE, Method: STANDARD PLATE
[6] = Test System: AMES SALMONELLA TYPHIMURIUM, Strain/Indicator: TA100, Metabolic Activation: RAT, LIVER, S-9, AROCLOR 1254, Method: STANDARD PLATE
[7] = Test System: AMES SALMONELLA TYPHIMURIUM, Strain/Indicator: TA102, Metabolic Activation: NONE, Method: STANDARD PLATE
[8] = Test System: AMES SALMONELLA TYPHIMURIUM, Strain/Indicator: TA100, Metabolic Activation: S-9, Method: STANDARD PLATE
[9] = Test System: AMES SALMONELLA TYPHIMURIUM, Strain/Indicator: TA98, Metabolic Activation: NONE, Method: PREINCUBATION
[10] = Test System: AMES SALMONELLA TYPHIMURIUM, Strain/Indicator: TA100, Metabolic Activation: NONE, Method: PREINCUBATION
[11] = Test System: AMES SALMONELLA TYPHIMURIUM, Strain/Indicator: TA104, Metabolic Activation: NONE, Method: STANDARD PLATE

## Cc1cc(Cl)ccc1OC(C)C(=O)O (stereo not drawn)
[1]
  mutagenic call: inactive; negative
[2]
  mutagenic call: inactive; negative
[3]
  mutagenic call: inactive; negative
[4]
  mutagenic call: inactive; negative
[5]
  mutagenic call: inactive; negative
[6]
  mutagenic call: inactive; negative
[7]
  mutagenic call: inactive; negative
Test System: AMES SALMONELLA TYPHIMURIUM, Strain/Indicator: TA102, Metabolic Activation: RAT, LIVER, S-9, AROCLOR 1254, Method: STANDARD PLATE
  mutagenic call: inactive; negative

## Cc1cn(CC(O)CN=[N+]=[N-])c(=O)[nH]c1=O (stereo not drawn)
[5]
  mutagenic call: active; positive

## O=C(N=c1sn(C(=O)c2ccccc2)c2ccc([N+](=O)[O-])cc12)c1ccccc1
[8]
  mutagenic call: active; positive

## Nc1ncnc2c1ncn2[C@@H]1O[C@H](CO)[C@@H](O)[C@@H]1O
Test System: CHINESE HAMSTER OVARY, Strain/Indicator: CHO/6-THIOGUANINE, Metabolic Activation: NONE
  mutagenic call: active; positive

## O=C1C=Cc2c(ccc3c2ccc2ccccc23)C1=O
[3]
  mutagenic call: inactive; negative
[6]
  mutagenic call: inactive; negative

## NC(=O)OC1CO1 (stereo not drawn)
Test System: AMES SALMONELLA TYPHIMURIUM, Strain/Indicator: TA1535, Metabolic Activation: RAT, LIVER, MICROSOMES, Method: STANDARD PLATE
  mutagenic call: active; positive

## Nc1ccc(/C=C/c2ccc([N+](=O)[O-])cc2)cc1
Test System: AMES SALMONELLA TYPHIMURIUM, Strain/Indicator: TA98 (NR), Metabolic Activation: NONE, Method: STANDARD PLATE
  mutagenic call: inactive; negative
Test System: AMES SALMONELLA TYPHIMURIUM, Strain/Indicator: TA98 (NR), Metabolic Activation: S-9, Method: STANDARD PLATE
  mutagenic call: active; positive
[3]
  mutagenic call: active; positive
Test System: AMES SALMONELLA TYPHIMURIUM, Strain/Indicator: TA98, Metabolic Activation: S-9, Method: STANDARD PLATE
  mutagenic call: active; positive
Test System: AMES SALMONELLA TYPHIMURIUM, Strain/Indicator: TA100 (NR), Metabolic Activation: NONE, Method: STANDARD PLATE
  mutagenic call: inactive; negative
Test System: AMES SALMONELLA TYPHIMURIUM, Strain/Indicator: TA100 (NR), Metabolic Activation: S-9, Method: STANDARD PLATE
  mutagenic call: active; positive
[5]
  mutagenic call: inactive; negative
[8]
  mutagenic call: active; positive

## CCOc1cccc([N+](=O)[O-])c1
[9]
  mutagenic call: inactive; negative
Test System: AMES SALMONELLA TYPHIMURIUM, Strain/Indicator: TA98, Method: PREINCUBATION
  mutagenic call: inactive; negative
[10]
  mutagenic call: inactive; negative
Test System: AMES SALMONELLA TYPHIMURIUM, Strain/Indicator: TA100, Method: PREINCUBATION
  mutagenic call: inactive; negative
Test System: AMES SALMONELLA TYPHIMURIUM, Strain/Indicator: TA1535, Metabolic Activation: NONE, Method: PREINCUBATION
  mutagenic call: inactive; negative
Test System: AMES SALMONELLA TYPHIMURIUM, Strain/Indicator: TA1535, Method: PREINCUBATION
  mutagenic call: inactive; negative
Test System: AMES SALMONELLA TYPHIMURIUM, Strain/Indicator: TA1537, Metabolic Activation: NONE, Method: PREINCUBATION
  mutagenic call: inactive; negative
Test System: AMES SALMONELLA TYPHIMURIUM, Strain/Indicator: TA1537, Method: PREINCUBATION
  mutagenic call: inactive; negative
Test System: AMES SALMONELLA TYPHIMURIUM, Strain/Indicator: TA1538, Metabolic Activation: NONE, Method: PREINCUBATION
  mutagenic call: inactive; negative
Test System: AMES SALMONELLA TYPHIMURIUM, Strain/Indicator: TA1538, Method: PREINCUBATION
  mutagenic call: inactive; negative

## C/C(Cl)=C/C=O
Test System: AMES SALMONELLA TYPHIMURIUM, Strain/Indicator: D3052, Metabolic Activation: NONE, Method: PREINCUBATION, LIQUID INCUBATION
  mutagenic call: active; positive
Test System: AMES SALMONELLA TYPHIMURIUM, Strain/Indicator: TA98, Metabolic Activation: NONE, Method: PREINCUBATION, LIQUID INCUBATION
  mutagenic call: inactive; negative
Test System: AMES SALMONELLA TYPHIMURIUM, Strain/Indicator: TA100, Metabolic Activation: NONE, Method: PREINCUBATION, LIQUID INCUBATION
  mutagenic call: inactive; negative
Test System: AMES SALMONELLA TYPHIMURIUM, Strain/Indicator: TA1535, Metabolic Activation: NONE, Method: PREINCUBATION, LIQUID INCUBATION
  mutagenic call: inactive; negative
Test System: AMES SALMONELLA TYPHIMURIUM, Strain/Indicator: TA1538, Metabolic Activation: NONE, Method: PREINCUBATION, LIQUID INCUBATION
  mutagenic call: inactive; negative

## O=CN(O)c1ccc(Cl)c(Cl)c1
[1]
  mutagenic call: inactive; negative
[2]
  mutagenic call: inactive; negative
[3]
  mutagenic call: inactive; negative
[4]
  mutagenic call: inactive; negative
[5]
  mutagenic call: inactive; negative
[6]
  mutagenic call: inactive; negative
[11]
  mutagenic call: inactive; negative
Test System: AMES SALMONELLA TYPHIMURIUM, Strain/Indicator: TA104, Metabolic Activation: RAT, LIVER, S-9, AROCLOR 1254, Method: STANDARD PLATE
  mutagenic call: inactive; negative

## Cc1c(N)cc(N)cc1N
Test System: CHINESE HAMSTER CELLS, Strain/Indicator: CHO CELLS(HPRT)/6-THIOGUANINE, Metabolic Activation: NONE, Method: SUSPENSION/PLATE
  mutagenic call: active; positive
Test System: CHINESE HAMSTER CELLS, Strain/Indicator: CHO CELLS(HPRT)/6-THIOGUANINE, Metabolic Activation: RAT LIVER S-9, AROCLOR 1254, Method: SUSPENSION/PLATE
  mutagenic call: inactive; negative

## CC[C@@]1(O)C[C@H](O[C@H]2C[C@H](N(C)C)[C@H](O)[C@H](C)O2)c2c(cc3c(c2O)C(=O)c2c(O)cccc2C3=O)[C@H]1C(=O)OC
[7]
  mutagenic call: active; positive
[11]
  mutagenic call: active; positive

## O=C1c2ccccc2-c2ccc([N+](=O)[O-])c3cccc1c23
End Point: IN VITRO MICRONUCLEUS, Test System: HUMAN B-LYMPHOBLASTOID CELLS (MCL-5), Metabolic Activation: NONE
  mutagenic call: active; positive
End Point: In vivo micronucleus, Test System: lacZ mutant frequency in liver, lung, and bone marrow cells, Species: Mouse, Strain/Sex: Big Blue (BALB/c x DBA2)/Male, Route: Oral
  mutagenic call: active; positive in liver and bone marrow
Test System: Human lymphoblastoid cells, Strain/Indicator: MCL-5 (HPRT)/6-Thioguanine, Metabolic Activation: None, Method: Well plates
  mutagenic call: active; positive
Test System: Human lymphoblastoid cells, Strain/Indicator: MCL-5 (tk+/tk-)/Trifluorothymidine, Metabolic Activation: None, Method: Well plates
  mutagenic call: active; positive
Test System: Human lymphoblastoid cells, Strain/Indicator: h1A1v2 (HPRT)/6-Thioguanine, Metabolic Activation: None, Method: Well plates
  mutagenic call: active; positive
Test System: Human lymphoblastoid cells, Strain/Indicator: h1A1v2 (tk+/tk-)/Trifluorothymidine, Metabolic Activation: None, Method: Well plates
  mutagenic call: active; positive

## O[C@@H]1[C@@H]2O[C@@H]2c2c(ccc3cc4c(ccc5ccccc54)nc23)[C@H]1O
[9]
  mutagenic call: active; positive
[10]
  mutagenic call: active; positive
Test System: CHINESE HAMSTER V-79, Strain/Indicator: V-79/8-AZAGUANINE, Metabolic Activation: NONE
  mutagenic call: active; positive
